Reference: publication PMC11542717 (ADMET & DMPK, 2024)
Like-named read-outs stand apart in the source and are kept apart here.

Experiments:
[1] = type: physicochemical; details: IAM PC.DD2 column, pH 7.4, acetonitrile gradient, UV filters
[2] = system: water flea (Daphnia magna); details: 48 h static, immobilization; ECHA database, converted to -log M; cited from earlier work
[3] = cited from earlier work; for CHIIAM: pharmaceuticals used for model construction (training set); for CHIIAM (predetermined): calibration set, established by isocratic measurement
fish species = details: 96 h static; ECHA database, mg/L converted to -log M; cited from earlier work

CCCCC(CC)COC(=O)C=Cc1ccc(OC)cc1 (centres unmarked) [Octinoxate, octinoxate]
CHIIAM (chromatographic phospholipid binding) [1]: 54.2
CHIIAM (chromatographic phospholipid binding) ([1]; listed as octinoxate): > 45
pEC50 water flea (Daphnia magna), Experimental [2]: 5.03

COc1ccc([C@@H]2Sc3ccccc3N(CCN(C)C)C(=O)[C@@H]2OC(C)=O)cc1 [Diltiazem]
CHIIAM [3]: 42.0

CC1CC(OC(=O)c2ccccc2O)CC(C)(C)C1 (centres unmarked) [Homosalate, homosalate]
CHIIAM (chromatographic phospholipid binding) [1]: 56.8
CHIIAM (chromatographic phospholipid binding) ([1]; listed as homosalate): > 45

CCCCC(=O)c1ccccc1 [Valerophenone]
CHIIAM (predetermined) [3]: 37.3

O=S(=O)(O)c1ccc2[nH]c(-c3ccccc3)nc2c1 [Ensulizole, ensulizole]
CHIIAM (chromatographic phospholipid binding) [1]: 13.2
CHIIAM (chromatographic phospholipid binding) ([1]; listed as ensulizole): < 20
pLC50 fish, Experimental (fish species): 2.91
pEC50 water flea (Daphnia magna), Experimental [2]: 3.44

COc1cc(NS(=O)(=O)c2ccc(N)cc2)nc(OC)n1 [Sulfadimethoxine]
CHIIAM [3]: 13.8

Nc1ccc(S(=O)(=O)Nc2ccc(Cl)nn2)cc1 [Sulfachlorpyridazine]
CHIIAM [3]: 7.67

COc1ccc(C(=O)CC(=O)c2ccc(C(C)(C)C)cc2)cc1 [Avobenzone, avobenzone]
CHIIAM (chromatographic phospholipid binding) [1]: 53.4
CHIIAM (chromatographic phospholipid binding) ([1]; listed as avobenzone): > 45
pEC50 water flea (Daphnia magna), Experimental [2]: 5.20

CC1(C)S[C@@H]2[C@H](NC(=O)[C@H](N)c3ccccc3)C(=O)N2[C@H]1C(=O)O [Ampicillin]
CHIIAM [3]: 10.5

Cc1ccc(C)c(OCCCC(C)(C)C(=O)O)c1 [Gemfibrozil]
CHIIAM [3]: 33.7

Cc1ncc([N+](=O)[O-])n1CCO [Metronidazole]
CHIIAM [3]: -4.81

Nc1ccc(C(=O)O)cc1 [4-Aminobenzoic Acid, 4-aminobenzoic acid]
CHIIAM (chromatographic phospholipid binding) [1]: 3.30
CHIIAM (chromatographic phospholipid binding) ([1]; listed as aminobenzoic acid): < 20
pLC50 fish, Experimental (fish species): 2.12
pEC50 water flea (Daphnia magna), Experimental [2]: 3.26

COc1ccc(C(=O)c2ccccc2)c(O)c1 [Oxybenzone, oxybenzone]
CHIIAM (chromatographic phospholipid binding) [1]: 40.8
pLC50 fish, Experimental (fish species): 4.78
pEC50 water flea (Daphnia magna), Experimental [2]: 4.92

CCCC(=O)c1ccccc1 [Butyrophenone]
CHIIAM (predetermined) [3]: 32.0

Nc1ccc(S(=O)(=O)Nc2nccs2)cc1 [Sulfathiazole]
CHIIAM [3]: 11.0

O=C(O)Cc1ccccc1Nc1c(Cl)cccc1Cl [Diclofenac]
CHIIAM [3]: 34.1

CCCCC(CC)COC(=O)C(C#N)=C(c1ccccc1)c1ccccc1 (centres unmarked) [Octocrylene, octocrylene]
CHIIAM (chromatographic phospholipid binding) [1]: 60.0
CHIIAM (chromatographic phospholipid binding) ([1]; listed as octocrylene): > 45
pLC50 fish, Experimental (fish species): 5.65
pEC50 water flea (Daphnia magna), Experimental [2]: 5.06

COCCc1ccc(OCC(O)CNC(C)C)cc1 (centres unmarked) [Metoprolol]
CHIIAM [3]: 35.4

COc1ccc(NS(=O)(=O)c2ccc(N)cc2)nn1 [Sulfamethoxypyridazine]
CHIIAM [3]: 10.9

NC(=O)N1c2ccccc2C=Cc2ccccc21 [Carbamazepine]
CHIIAM [3]: 26.9

CCCCCCC(=O)c1ccccc1 [Heptanophenone]
CHIIAM (predetermined) [3]: 45.7

CC1CCC(C(C)C)C(OC(=O)c2ccccc2N)C1 (centres unmarked) [Meradimate, meradimate]
CHIIAM (chromatographic phospholipid binding) [1]: 56.9
CHIIAM (chromatographic phospholipid binding) ([1]; listed as meradimate): > 45
pLC50 fish, Experimental (fish species): 4.48
pEC50 water flea (Daphnia magna), Experimental [2]: 5.24

CC(=O)c1ccccc1 [Acetophenone]
CHIIAM (predetermined) [3]: 17.2

Cn1c(=O)c2[nH]cnc2n(C)c1=O [Theophylline]
CHIIAM [3]: 1.80

COc1cc(O)c(C(=O)c2ccccc2)cc1S(=O)(=O)O [Sulisobenzone, sulisobenzone]
CHIIAM (chromatographic phospholipid binding) [1]: 14.3
CHIIAM (chromatographic phospholipid binding) ([1]; listed as sulisobenzone): < 20
pLC50 fish, Experimental (fish species): 2.69
pEC50 water flea (Daphnia magna), Experimental [2]: 3.79

CCCCC(CC)COC(=O)c1ccccc1O (centres unmarked) [Octisalate, octisalate]
CHIIAM (chromatographic phospholipid binding) [1]: 55.1
CHIIAM (chromatographic phospholipid binding) ([1]; listed as octisalate): > 45
pLC50 fish, Experimental (fish species): 4.40
pEC50 water flea (Daphnia magna), Experimental [2]: 5.58

COc1ccc(C(=O)c2ccccc2O)c(O)c1 [Dioxybenzone, dioxybenzone]
CHIIAM (chromatographic phospholipid binding) [1]: 39.9
pEC50 water flea (Daphnia magna), Experimental [2]: 4.76

CCCCC(CC)COC(=O)c1ccc(N(C)C)cc1 (centres unmarked) [Padimate O, padimate O]
CHIIAM (chromatographic phospholipid binding) [1]: 53.6
pLC50 fish, Experimental (fish species): 4.85
pEC50 water flea (Daphnia magna), Experimental [2]: 4.69

CCCCCC(=O)c1ccccc1 [Hexanophenone]
CHIIAM (predetermined) [3]: 41.8

CN(C)CCC=C1c2ccccc2CCc2ccccc21 [Amitriptyline]
CHIIAM [3]: 55.3

CCCCCCCC(=O)c1ccccc1 [Octanophenone]
CHIIAM (predetermined) [3]: 49.4

CC1COc2c(N3CCN(C)CC3)c(F)cc3c(=O)c(C(=O)O)cn1c23 (centres unmarked) [Ofloxacin]
CHIIAM [3]: 28.9

CCc1nc(N)nc(N)c1-c1ccc(Cl)cc1 [Pyrimethamine]
CHIIAM [3]: 38.2

CCC(=O)c1ccccc1 [Propiophenone]
CHIIAM (predetermined) [3]: 25.9
